Patent publication US5411971A, “N-alkylenepiperidino compounds, their enantiomers and pharmaceutical compositions” (Elf Sanofi, priority 1991, dated 1995)
Counter-ions that a name gives are not always drawn. Each block holds one compound with its values, some of them ahead of it.

Legend:
[1] = system: substance P binding; assay: Antagonism of binding of substance P (rat cortex membranes or IM9 cells, not stated which); details: preparation (rat cortex membranes or IM9 lymphoblastic cells) not given; read-out: Ki, antagonises the binding of substance P
[2] = target: T1, neurokinin A binding, rat duodenum membranes (Rattus norvegicus, UniProt P16610); assay: Antagonism of binding to NKA (neurokinin A), rat duodenum membranes; details: read-out: Ki, antagonises the binding of neurokinin A
T1 construct: rat duodenum membranes; from tissue; host or cells: rat duodenum membranes
T1 sequence (P16610 1-390): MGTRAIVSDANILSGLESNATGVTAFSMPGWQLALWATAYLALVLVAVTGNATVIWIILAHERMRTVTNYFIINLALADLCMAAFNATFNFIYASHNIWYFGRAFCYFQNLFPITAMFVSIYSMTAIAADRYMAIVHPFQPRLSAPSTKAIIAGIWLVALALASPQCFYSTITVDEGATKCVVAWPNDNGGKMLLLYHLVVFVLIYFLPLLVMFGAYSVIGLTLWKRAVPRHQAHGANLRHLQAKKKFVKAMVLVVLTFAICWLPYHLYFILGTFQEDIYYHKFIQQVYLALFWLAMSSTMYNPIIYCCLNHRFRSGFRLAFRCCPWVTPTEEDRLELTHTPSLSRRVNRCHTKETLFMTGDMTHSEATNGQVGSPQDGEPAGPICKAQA

[3] = target: T2, eledoisin binding, rat membranes (Rattus norvegicus, UniProt P16177); assay: Antagonism of binding to eledoisin, rat membranes; details: read-out: Ki, antagonises the binding of eledoisin
T2 construct: rat membranes; from tissue; brain cortex inferred from the cited Foster et al. 1988
T2 sequence (P16177 1-452): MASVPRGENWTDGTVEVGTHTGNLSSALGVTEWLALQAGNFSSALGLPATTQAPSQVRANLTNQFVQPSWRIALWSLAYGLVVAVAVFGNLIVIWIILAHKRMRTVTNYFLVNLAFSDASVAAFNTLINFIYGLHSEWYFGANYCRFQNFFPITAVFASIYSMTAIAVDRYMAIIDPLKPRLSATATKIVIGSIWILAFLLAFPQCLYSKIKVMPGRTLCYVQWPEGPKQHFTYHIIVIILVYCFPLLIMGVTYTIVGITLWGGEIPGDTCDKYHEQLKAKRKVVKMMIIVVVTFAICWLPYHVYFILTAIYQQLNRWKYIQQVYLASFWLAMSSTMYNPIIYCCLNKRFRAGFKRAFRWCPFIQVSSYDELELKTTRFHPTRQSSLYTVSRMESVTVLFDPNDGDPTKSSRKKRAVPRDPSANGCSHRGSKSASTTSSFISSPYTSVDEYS
Source text: Foster et al., Br. J. Pharmacol., 1988, 94, 602-608.
Eledoisin is a peptide of batrachian origin which is equivalent to neurokinin B.

Structure (SMILES): O=C(NCC(CCN1CCC(Sc2ccccn2)CC1)c1ccc(Cl)c(Cl)c1)c1ccc(Cl)cc1Cl (stereo not drawn) [Compound 4]
- Ki [1]: 41 nM

Structure (SMILES): CC(=O)N(c1ccccc1)C1CCN(CCC(CN(C)C(=O)c2ccccc2)c2ccc(Cl)c(Cl)c2)CC1 (stereo not drawn) [Compound 8, N-[4-(N'-4-Acetylanilino-1-piperidinyl)-2-(3,4-dichlorophenyl)butyl]-N-methylbenzamide hydrochloride]
- Ki [2]: 5.5 nM

- Ki [3]: 400 nM
Structure (SMILES): O=C(NCC(CCN1CCC(Nc2ccccc2)CC1)c1ccc(Cl)c(Cl)c1)c1ccc(F)c2ccccc12 (stereo not drawn) [Compound 9]
